Laboratory results as given in paper PMC3777193, “Diaryl- and triaryl-pyrrole derivatives: inhibitors of the MDM2–p53 and MDMX–p53 protein–protein interactions” (Medchemcomm, 2013).
Where two headings read alike, the source gives them in different places.

How the values were obtained:
[1] = biological target: MDM2–p53 (Homo sapiens, UniProt Q00987); assay: MDM2–p53 ELISA protein–protein binding assay; details: for fold loss of potency against MDM2–p53: N-alkyl malonamides compared with 10c
[2] = biological target: T1, MDMX–p53 (Homo sapiens, UniProt O15151); assay: MDMX–p53 ELISA binding assay; details: for IC50: read-out: MDMX IC50
T1 construct: host or cells: in vitro coupled T7 transcription and rabbit reticulocyte lysate translation
T1 sequence (O15151 1-490): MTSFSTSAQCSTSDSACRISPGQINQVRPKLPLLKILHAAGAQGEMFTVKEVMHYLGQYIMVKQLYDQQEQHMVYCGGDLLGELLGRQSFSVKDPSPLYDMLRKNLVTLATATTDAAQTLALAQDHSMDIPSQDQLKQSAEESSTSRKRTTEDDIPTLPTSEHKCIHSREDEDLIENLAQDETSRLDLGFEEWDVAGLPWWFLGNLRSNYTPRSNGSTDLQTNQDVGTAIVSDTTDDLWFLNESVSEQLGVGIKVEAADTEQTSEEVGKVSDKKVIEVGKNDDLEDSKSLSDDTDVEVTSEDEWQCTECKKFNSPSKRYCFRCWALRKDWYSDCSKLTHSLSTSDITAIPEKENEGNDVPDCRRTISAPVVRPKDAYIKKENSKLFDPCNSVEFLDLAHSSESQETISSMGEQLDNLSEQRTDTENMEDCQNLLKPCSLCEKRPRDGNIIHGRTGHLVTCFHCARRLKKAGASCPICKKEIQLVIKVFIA

[3] = Growth inhibitory activity, A2708 (Table S3); assay type: cell-based; details: read-out: GI50 A2708
From the text: (§1) (2 pictures or pasted objects on this page, not shown here)

[4] = system: A2780-CP70; assay: Growth inhibitory activity, A2780-CP70 (Table S3); assay type: cell-based; details: A2780/CP70, read-out: GI50 A2780-CP70
From the text: as §1

[5] = system: HCT116; assay: Growth inhibitory activity, HCT116 (Table S3); assay type: cell-based; details: Homo sapiens, HCT-116, read-out: GI50 HCT116
From the text: as §1

[6] = system: HCT116 p53(-/-); assay: Growth inhibitory activity, HCT116 p53(-/-) (Table S3); assay type: cell-based; details: Homo sapiens, HCT-116, read-out: GI50 HCT116 p53(-/-)
From the text: as §1

[7] = system: SJSA-1 cells; assay type: cell-based; details: SJSA-1 (MDM2 amplified, p53wt), 5 μM, 4 h
[8] = system: A2780CP70 cells; assay type: cell-based; details: A2780 CP70 (p53 mutant), 0.1, 0.2 and 5 μM, 4 h
[9] = system: SJSA-1; assay: Growth inhibitory activity, SJSA-1; details: Homo sapiens, SJSA-1, read-out: GI50 SJSA-1
Description: (§2) Growth inhibitory activity was determined for selected pyrroles in a panel of cell lines with defined MDM2, MDMX and p53 status (Table 5).

[10] = system: SN40R2; assay: Growth inhibitory activity, SN40R2; details: read-out: GI50 SN40R2
Description: as §2

[11] = system: MRK-NU-1; assay: Growth inhibitory activity, MRK-NU-1; details: Homo sapiens, MRK-nu-1, read-out: GI50 MRK-NU-1
Description: as §2

[12] = Table 3, n = 3 (b n = 5), read-out: MDM2 IC50

Sequence of MDM2–p53 (Q00987 whole entry): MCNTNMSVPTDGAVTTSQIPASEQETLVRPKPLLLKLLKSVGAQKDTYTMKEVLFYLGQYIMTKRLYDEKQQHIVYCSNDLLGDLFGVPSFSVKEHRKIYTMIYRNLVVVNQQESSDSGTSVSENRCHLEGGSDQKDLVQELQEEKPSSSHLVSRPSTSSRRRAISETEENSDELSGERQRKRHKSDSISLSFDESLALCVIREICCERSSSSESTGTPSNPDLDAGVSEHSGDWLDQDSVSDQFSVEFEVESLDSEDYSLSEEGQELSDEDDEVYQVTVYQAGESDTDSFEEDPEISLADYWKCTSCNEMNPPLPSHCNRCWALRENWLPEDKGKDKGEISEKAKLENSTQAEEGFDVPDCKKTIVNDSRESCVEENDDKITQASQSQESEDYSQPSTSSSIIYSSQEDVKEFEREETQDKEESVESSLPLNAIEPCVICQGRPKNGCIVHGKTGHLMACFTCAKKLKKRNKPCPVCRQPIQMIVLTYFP

SMILES: CCN1C(=O)C(=Cc2cc(-c3ccccc3)n(-c3ccc(Cl)cc3)c2-c2ccccc2)C(=O)N(CC)C1=S [Compound 4u]
- fold less potent against MDM2 compared with unsubstituted analogues [1]: 3–4 fold
- IC50 ([1]; read-out: MDM2 IC50): 0.3 ± 0.12 µM

SMILES: O=C1NC(=S)NC(=O)C1=Cc1cc(C2CC2)n(-c2ccc(Cl)cc2)c1-c1ccccc1 [Compound 11f]
- IC50 ([1]; read-out: MDM2 IC50): 2.1 ± 2.7 µM
- IC50 [2]: 4920 µM

SMILES: N#Cc1ccc(-n2c(-c3ccccc3)cc(C=C3C(=O)NC(=O)NC3=O)c2-c2ccccc2)cc1 [Compound 4q]
- IC50 ([1]; read-out: MDM2 IC50): 4.7 ± 1.9 µM
- IC50 [2]: 7 ± 3 µM

SMILES: CC(C)(C)c1cc(C=C2C(=O)NC(=S)NC2=O)c(-c2ccccc2)n1-c1ccc(Br)cc1 [Compound 11b]
- IC50 ([1]; read-out: MDM2 IC50): 0.76 ± 0.27 µM
- fold loss of potency for MDMX [2]: > 200 fold
- IC50 [2]: 963 µM

SMILES: Cc1cc(C=C2C(=O)NC(=S)NC2=O)c(C)n1-c1sc2c(c1C#N)CCCC2 [Compound 3, 2-(3-((4,6-dioxo-2-thioxotetrahydropyrimidin-5(2H)-ylidene)methyl)-2,5-dimethyl-1H-pyrrol-1-yl)-4,5,6,7-tetrahydrobenzo[b]thiophene-3-carbonitrile]
- IC50 [1]: 12.3 µM
- GI50 [3]: 3.9 ± 0.1 µM
- GI50 [4]: 3.9 ± 0.1 µM
- GI50 [5]: 7.8 ± 0.2 µM
- GI50 [6]: 7.7 ± 0.1 µM
- induction of MDM2, p53, and p21 (Western blot) [7]: clearly visible
- induction of MDM2, p53, and p21 (Western blot) [8]: no induction
- GI50 [9]: 4.4 ± 0.1 µM

SMILES: Cc1ccc(-n2c(C)cc(/C=C3\C(=O)NC(=S)N(c4ccccc4)C3=O)c2C)cc1 [Compound 4i]
- IC50 ([1]; read-out: MDM2 IC50): 8.4 ± 0.9 µM
- GI50 [3]: 7.5 ± 0.1 µM
- GI50 [4]: 9 ± 0.4 µM
- GI50 [5]: 9.5 ± 0.3 µM
- GI50 [6]: 9.7 ± 0.2 µM
- GI50 [9]: 7.1 ± 0.1 µM

SMILES: O=C(NCCO)C(=Cc1cc(-c2ccccc2)n(-c2ccc(Cl)cc2)c1-c1ccccc1)C(=O)NCCO [Compound 10e]
- fold loss of potency against MDM2–p53 [1]: 6 fold
- IC50 [1, 12]: 15 ± 3 µM
- IC50 ([2]; Table 3, n = 3 (c n = 1)): 42 µM

SMILES: NC(=O)C(=Cc1cc(-c2ccccc2)n(-c2ccc(Cl)cc2)c1-c1ccccc1)C(N)=O [Compound 10c]
- IC50 [1, 12]: 2.5 ± 0.2 µM
- IC50 ([2]; Table 3, n = 3 (c n = 1)): 30 µM

SMILES: Cc1ccc(-n2c(C)cc(C=C3C(=O)NC(=S)NC3=O)c2C)cc1 [Compound 4j]
- IC50 ([1]; read-out: MDM2 IC50): 4.7 ± 0.2 µM

SMILES: O=C1NC(=O)C(=Cc2cc(-c3ccccc3)n(-c3ccc(Cl)cc3)c2-c2ccccc2)C(=O)N1 [Compound 4m]
- IC50 ([1]; read-out: MDM2 IC50): 0.3 ± 0.03 µM

SMILES: Cc1cc(C=C2C(=O)N(c3ccccc3)C(=S)N(c3ccccc3)C2=O)c(C)n1-c1ccc(Br)cc1 [Compound 4h]
- IC50 ([1]; read-out: MDM2 IC50): 0.199 ± 0.016 µM

SMILES: Cc1ccc(N2C(=O)/C(=C\c3cc(-c4ccccc4)n(-c4ccc(Cl)cc4)c3-c3ccccc3)C(=O)N(c3ccccc3)C2=S)cc1C [Compound 4f]
- IC50 ([1]; read-out: MDM2-p53 IC50): 0.26 ± 0.04 µM
- IC50 ([1]; read-out: MDM2 IC50): 0.256 ± 0.039 µM

SMILES: N#Cc1ccc(-n2c(-c3ccccc3)cc(C=C3C(=O)NC(=S)NC3=O)c2-c2ccccc2)cc1 [Compound 4r]
- IC50 ([1]; read-out: MDM2 IC50): 0.2 ± 0.07 µM
- IC50 [2]: 0.9 ± 0.42 µM
- GI50 [9]: 5.1 ± 0.9 µM
- GI50 [10]: 5.9 ± 0.3 µM
- GI50 [11]: 6.1 ± 0.7 µM

SMILES: CNC(=O)C(=Cc1cc(-c2ccccc2)n(-c2ccc(Cl)cc2)c1-c1ccccc1)C(=O)NC [Compound 10d]
- fold loss of potency against MDM2–p53 [1]: 3 fold
- IC50 [1, 12]: 7.6 ± 0.4 µM
- IC50 ([2]; Table 3, n = 3 (c n = 1)): 30 µM

SMILES: O=C(O)C(=Cc1cc(-c2ccccc2)n(-c2ccc(Cl)cc2)c1-c1ccccc1)C(=O)O [Compound 10b]
- activity against MDM2–p53 in words [1]: modest activity
- IC50 [1, 12]: 2.9 ± 0.2 µM
- IC50 ([2]; Table 3, n = 3 (c n = 1)): > 50 µM

SMILES: COC(=O)C(=Cc1cc(-c2ccccc2)n(-c2ccc(Cl)cc2)c1-c1ccccc1)C(=O)OC [Compound 10a]
- activity against MDM2–p53 in words [1]: essentially inactive
- IC50 [1, 12]: > 50 µM
- IC50 ([2]; Table 3, n = 3 (c n = 1)): > 50 µM

SMILES: O=C1NC(=O)C(=Cc2cc(-c3ccccc3)n(-c3ccc([N+](=O)[O-])cc3)c2-c2ccccc2)C(=O)N1 [Compound 4s, 5-((1-(4-nitrophenyl)-2,5-diphenyl-1H-pyrrol-3-yl)methylene)pyrimidine-2,4,6(1H,3H,5H)-trione]
- IC50 ([1]; read-out: MDM2 IC50): 0.15 ± 0.06 µM
- IC50 [2]: 0.68 ± 0.18 µM

SMILES: CCN1C(=O)C(=Cc2cc(-c3ccccc3)n(-c3ccc(Br)cc3)c2-c2ccccc2)C(=O)N(CC)C1=S [Compound 4w]
- IC50 ([1]; read-out: MDM2 IC50): 0.26 ± 0.05 µM

SMILES: Cc1cc(/C=C2\C(=O)NC(=S)N(c3ccccc3)C2=O)c(C)n1-c1ccc(Cl)cc1 [Compound 4b]
- IC50 ([1]; read-out: MDM2 IC50): 3.3 ± 0.7 µM
- GI50 [3]: 8.4 ± 0.2 µM
- GI50 [4]: 9.5 ± 0.1 µM
- GI50 [5]: 9.5 ± 0.3 µM
- GI50 [6]: 9.9 ± 0.1 µM
- GI50 [9]: 7.6 ± 0.1 µM

SMILES: CC1(C)OC(=O)C(=Cc2cc(-c3ccccc3)n(-c3ccc(Br)cc3)c2-c2ccccc2)C(=O)O1 [Compound 7]
- fold less potent than 8c against MDM2–p53 [1]: > 100 fold
- IC50 [1, 12]: 17 ± 4 µM
